# Experimental data reported in US7125990B2, “Imidazolyl derivatives as corticotropin releasing factor inhibitors” (Bristol-Myers Squibb COmpany, priority 2001, dated 2006).
# Biological target: T1, CRF1 receptors (Homo sapiens, UniProt P34998)
# T1 construct: endogenous in cells; host or cells: IMR-32 cells, transformed with 2.5 µM 5'-bromo-2'-deoxyuridine for 10 days; membrane preparation
# T1 sequence (P34998 24-415): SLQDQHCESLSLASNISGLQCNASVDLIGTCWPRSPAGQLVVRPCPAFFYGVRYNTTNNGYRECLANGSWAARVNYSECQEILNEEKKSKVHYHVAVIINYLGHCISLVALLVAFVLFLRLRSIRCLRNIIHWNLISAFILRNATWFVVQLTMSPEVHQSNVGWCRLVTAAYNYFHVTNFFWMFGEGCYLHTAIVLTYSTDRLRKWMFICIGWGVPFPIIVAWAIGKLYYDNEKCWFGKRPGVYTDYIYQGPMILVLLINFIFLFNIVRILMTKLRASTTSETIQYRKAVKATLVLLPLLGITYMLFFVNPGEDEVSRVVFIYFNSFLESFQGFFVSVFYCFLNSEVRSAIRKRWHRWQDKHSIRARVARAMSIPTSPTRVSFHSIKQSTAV
# Test: CRF1 receptor radioligand binding assay ([125I]-oCRF competition, IMR-32 cell membranes)
# Conditions: IMR-32 cell membranes, [125I]-oCRF 100 pM; read-out: Ki (CRF-1R)
# Method in brief: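 Buffer: Tris pH 7.2 with MgCl2, BSA, Triton X-100, aprotinin, leupeptin; reaction stopped with ice-cold wash and filtered. Nonspecific binding set with 10 μM oCRF.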
row,SMILES,Ki
1,"CCN(CCC1CC1)Cc1c(C(F)(F)F)nc2n1CCCN2c1c(C)cc(C)cc1Cl [Example 123, [8-(2-Chloro-4,6-dimethyl-phenyl)-2-trifluoromethyl-5,6,7,8-tetrahydro-imidazo[1,2-a]pyrimidin-3-ylmethyl]-(2-cyclopropyl-ethyl)-ethyl-amine]",< 1000 nM
2,"CCCN(CCC1CC1)Cc1c(C(F)(F)F)nc2n1CCCN2c1c(C)cc(C)cc1Cl [Example 124, [8-(2-Chloro-4,6-dimethyl-phenyl)-2-trifluoromethyl-5,6,7,8-tetrahydro-imidazo[1,2-a]pyrimidin-3-ylmethyl]-(2-cyclopropyl-ethyl)-propyl-amine]",< 1000 nM
3,"Cc1cc(C)c(N2CCCn3c2nc(C(F)(F)F)c3CN(CCC(F)(F)F)Cc2ccccc2)c(Cl)c1 [Example 125, Benzyl-[8-(2-chloro-4,6-dimethyl-phenyl)-2-trifluoromethyl-5,6,7,8-tetrahydro-imidazo[1,2-a]pyrimidin-3-ylmethyl]-(3,3,3-trifluoro-propyl)-amine]",< 1000 nM
4,"Cc1cc(C)c(N2CCCn3c2nc(C(F)(F)F)c3CN(CCC2CC2)CC(F)(F)F)c(Cl)c1 [Example 126, [8-(2-Chloro-4,6-dimethyl-phenyl)-2-trifluoromethyl-5,6,7,8-tetrahydro-imidazo[1,2-a]pyrimidin-3-ylmethyl]-(2-cyclopropyl-ethyl)-(2,2,2-trifluoro-ethyl)-amine]",< 1000 nM
5,"Cc1cc(C)c(N2CCCn3c2nc(C(F)(F)F)c3CN(CCC(F)(F)F)Cc2ccc(F)cc2)c(Cl)c1 [Example 127, [8-(2-Chloro-4,6-dimethyl-phenyl)-2-trifluoromethyl-5,6,7,8-tetrahydro-imidazo[1,2-a]pyrimidin-3-ylmethyl]-(4-fluoro-benzyl)-(3,3,3-trifluoro-propyl)-amine]",< 1000 nM
6,"Cc1cc(C)c(N2CCCn3c2nc(C(F)(F)F)c3CN(CCC(F)(F)F)Cc2ccc(Cl)cc2)c(Cl)c1 [Example 128, (4-Chloro-benzyl)-[8-(2-chloro-4,6-dimethyl-phenyl)-2-trifluoromethyl-5,6,7,8-tetrahydro-imidazo[1,2-a]pyrimidin-3-ylmethyl]-(3,3,3-trifluoro-propyl)-amine]",< 1000 nM
7,"CCCN(Cc1ccc(Cl)cc1)Cc1c(C(F)(F)F)nc2n1CCCN2c1c(C)cc(C)cc1Cl [Example 129, (4-Chloro-benzyl)-[8-(2-chloro-4,6-dimethyl-phenyl)-2-trifluoromethyl-5,6,7,8-tetrahydro-imidazo[1,2-a]pyrimidin-3-ylmethyl]-propyl-amine]",< 1000 nM
8,"CCCN(Cc1ccccc1)Cc1c(C(F)(F)F)nc2n1CCCN2c1c(C)cc(C)cc1Cl [Example 130, Benzyl-[8-(2-chloro-4,6-dimethyl-phenyl)-2-trifluoromethyl-5,6,7,8-tetrahydro-imidazo[1,2-a]pyrimidin-3-ylmethyl]-propyl-amine]",< 1000 nM
9,"C=CCN(CCC)Cc1c(C(F)(F)F)nc2n1CCCN2c1c(C)cc(C)cc1Cl [Example 131, Allyl-[8-(2-chloro-4,6-dimethyl-phenyl)-2-trifluoromethyl-5,6,7,8-tetrahydro-imidazo[1,2-a]pyrimidin-3-ylmethyl]-propyl-amine]",< 100 nM
10,"CCCN(Cc1ccc(F)cc1)Cc1c(C(F)(F)F)nc2n1CCCN2c1c(C)cc(C)cc1Cl [Example 132, [8-(2-Chloro-4,6-dimethyl-phenyl)-2-trifluoromethyl-5,6,7,8-tetrahydro-imidazo[1,2-a]pyrimidin-3-ylmethyl]-(4-fluoro-benzyl)-propyl-amine]",< 1000 nM
11,"Cc1cc(C)c(N2CCCn3c2nc(C(F)(F)F)c3CN(CCC(F)(F)F)Cc2cccc(F)c2)c(Cl)c1 [Example 133, [8-(2-Chloro-4,6-dimethyl-phenyl)-2-trifluoromethyl-5,6,7,8-tetrahydro-imidazo[1,2-a]pyrimidin-3-ylmethyl]-(3-fluoro-benzyl)-(3,3,3-trifluoro-propyl)-amine]",< 1000 nM
12,"CCCN(Cc1cccc(F)c1)Cc1c(C(F)(F)F)nc2n1CCCN2c1c(C)cc(C)cc1Cl [Example 134, [8-(2-Chloro-4,6-dimethyl-phenyl)-2-trifluoromethyl-5,6,7,8-tetrahydro-imidazo[1,2-a]pyrimidin-3-ylmethyl]-(3-fluoro-benzyl)-propyl-amine]",< 1000 nM
13,"Cc1cc(C)c(N2CCCn3c2nc(C(F)(F)F)c3CN(CC2CC2)CC(F)(F)F)c(Cl)c1 [Example 135, [8-(2-Chloro-4,6-dimethyl-phenyl)-2-trifluoromethyl-5,6,7,8-tetrahydro-imidazo[1,2-a]pyrimidin-3-ylmethyl]-cyclopropylmethyl-(2,2,2-trifluoroethyl)-amine]",< 100 nM
14,"CCN(Cc1c(C(F)(F)F)nc2n1CCCN2c1c(C)cc(C)cc1Cl)CC1CCC1 [Example 137, [8-(2-Chloro-4,6-dimethyl-phenyl)-2-trifluoromethyl-5,6,7,8-tetrahydro-imidazo[1,2-a]pyrimidin-3-ylmethyl]-cyclobutylmethyl-ethyl-amine]",< 1000 nM
15,"Cc1cc(C)c(N2CCCn3c2nc(C(F)(F)F)c3CN2CCCC2Cc2ccccc2)c(Cl)c1 (stereo not shown) [Example 138, 3-(2-Benzyl-pyrrolidin-1-ylmethyl)-8-(2-chloro-4,6-dimethyl-phenyl)-2-trifluoromethyl-5,6,7,8-tetrahydro-imidazo[1,2-a]pyrimidine]",< 100 nM
16,"CCCN(CC1CC1)C(=O)c1c(C)nc2n(-c3c(C)cc(C)cc3C)c3ccc(F)cc3n12 [Example 139, 5-Fluoro-2-methyl-8-(2,4,6-trimethyl-phenyl)-8H-1,3a,8-triaza-cyclopenta[α]indene-3-carboxylic acid cyclopropylmethyl-propyl-amide]",< 10000 nM
17,"CCCN(CC1CC1)C(=O)c1c(C)nc2n(-c3c(C)cc(C)cc3C)c3ccccc3n12 [Example 140, 2-Methyl-8-(2,4,6-trimethyl-phenyl)-8H-1,3a,8-triaza-cyclopenta[α]indene-3-carboxylic acid cyclopropylmethyl-propyl-amide]",< 1000 nM
18,"CCCN(CC1CC1)C(=O)c1c(CC)nc2n(-c3c(C)cc(C)cc3C)c3ccccc3n12 [Example 141, 2-Ethyl-8-(2,4,6-trimethyl-phenyl)-8H-1,3a,8-triaza-cyclopenta[a]indene-3-carboxylic acid cyclopropylmethyl-propyl-amide]",< 1000 nM
19,"CCCN(CC1CC1)C(=O)c1c(C(F)(F)F)nc2n(-c3c(C)cc(C)cc3C)c3ccccc3n12 [Example 142, 2-trifluoromethyl-8-(2,4,6-trimethylphenyl)-8H-1,3a,8-triaza-cyclopenta[a]indene-3-carboxylic acid cyclopropylmethyl-propyl-amide]",< 10000 nM
20,"CCCN(CC1CC1)C(=O)c1c(C)nc2n(-c3ccc(Cl)cc3Cl)c3ccccc3n12 [Example 143, 8-(2,4-Dichloro-phenyl)-2-methyl-8H-1,3a,8-triaza-cyclopenta[a]indene-3-carboxylic acid cyclopropylmethyl-propyl-amide]",< 10000 nM
21,"CCCN(CC1CC1)C(=O)c1c(CC)nc2n(-c3c(C)cc(C)cc3C)c3ccc(F)cc3n12 [Example 144, 2-Ethyl-5-fluoro-8-(2,4,6-trimethyl-phenyl)-8H-1,3a,8-triaza-cyclopenta[a]indene-3-carboxylic acid cyclopropylmethyl-propyl-amide]",< 100 nM
22,"CCCN(Cc1c(C)nc2n(-c3c(C)cc(C)cc3C)c3ccc(F)cc3n12)CC1CC1 [Example 145, Cyclopropylmethyl-[5-fluoro-2-methyl-8-(2,4,6-trimethyl-phenyl)-8H-1,3a,8-triaza-cyclopenta[a]inden-3-ylmethyl]-propyl-amine]",< 100 nM
23,"CCCN(Cc1c(C)nc2n(-c3c(C)cc(C)cc3C)c3ccccc3n12)CC1CC1 [Example 146, Cyclopropylmethyl-[2-methyl-8-(2,4,6-trimethyl-phenyl)-8H-1,3a,8-triaza-cyclopenta[α]inden-3-ylmethyl]-propyl-amine]",< 100 nM
24,"CCCN(Cc1c(CC)nc2n(-c3c(C)cc(C)cc3C)c3ccccc3n12)CC1CC1 [Example 147, Cyclopropylmethyl-[2-ethyl-8-(2,4,6-trimethyl-phenyl)-8H-1,3a,8-triaza-cyclopenta[a]inden-3-ylmethyl]-propyl-amine]",< 100 nM
25,"CCCN(Cc1c(C(F)(F)F)nc2n(-c3c(C)cc(C)cc3C)c3ccccc3n12)CC1CC1 [Example 148, Cyclopropylmethyl-propyl-[2-trifluoromethyl-8-(2,4,6-trimethyl-phenyl)-8H-1,3a,8-triaza-cyclopenta[α]inden-3-ylmethyl]-amine]",< 100 nM
26,"CCCN(Cc1c(CC)nc2n(-c3c(C)cc(C)cc3C)c3ccc(F)cc3n12)CC1CC1 [Example 149, Cyclopropylmethyl-[2-ethyl-5-fluoro-8-(2,4,6-trimethyl-phenyl)-8H-1,3a,8-triaza-cyclopenta[α]inden-3-ylmethyl]-propyl-amine]",< 1000 nM
27,Cc1cc(C)c(-n2c3ccccc3n3c(CN(CC4CC4)CC(F)(F)F)c(C(F)(F)F)nc23)c(C)c1 [Example 150],< 100 nM
28,"Cc1cc(C)c(-n2c3ccccc3n3c(CN(CC4CC4)CC4CC4)c(C(F)(F)F)nc23)c(C)c1 [Example 151, Bis-cyclopropylmethyl-[2-trifluoromethyl-8-(2,4,6-trimethyl-phenyl)-8H-1,3a,8-triaza-cyclopenta[α]inden-3-ylmethyl]-amine]",< 100 nM
